From patent publication US5710151A, “Method of treating urinary bladder dysfunctions” (priority 1996, dated 1998)
Where a name gives a salt, the structure may show the parent alone.

Test system: vesico-anal reflex
Assay: acetic acid-induced vesico-anal reflex
Assay type: in vivo, rat
Conditions: for duration of the increase in vesico-anal reflex activity when administered alone / vesico-anal reflex activity when administered alone: atropine 30 μg/kg-1 mg/kg, oxybutynin 1-3 mg/kg
Text: The model of visceral nociception that was used in the testing of the compounds according to the method of this invention is the acetic acid-induced vesico-anal reflex. This model utilizes infusion of a dilute acetic acid solution into the urinary bladder as a nociceptive stimulus and records increases in electromyographic (EMG) activity from the anal sphincter as the primary measured response. Anal sphincter EMG activity is composed of 2 components, 1) a small, long duration action potential (ca. 50 msec) that is sensitive to muscarinic antagonists and 2) a larger, short duration action potential (ca. 2 msec) that is sensitive to neuromuscular blocking agents (i.e. mediated by nicotinic receptors). […] It is the striated anal sphincter muscle activity that 1) is associated with bladder activity, 2) is increased by acetic acid infusion into the bladder, and 3) represents the vesico-anal reflex.
In the acetic acid-induced vesico-anal reflex model, bladders of urethane-anesthetized rats were cannulated through the dome for continuous-infusion cystometrogram recordings. EMG electrodes were inserted into the anus and the peri-urethral musculature for recording anal and urethral sphincteric activity, respectively.
Female Sprague-Dawley rats (200-300 g) were anesthetized with 1.4 g/kg urethane (0.7 g administered i.p. and 0.7 g administered s.c.), which was supplemented with 1% isoflurane during surgery. The urinary bladder was exposed through an abdominal incision and cannulated with PE60 tubing attached to a 22 gauge needle that was inserted through the dome of the bladder. A purse-string suture (5-0 silk) through the bladder held the needle in place. The cannula was connected to an infusion pump (Harvard Apparatus, Natick Mass.) and a pressure transducer (Statham Gould, Cleveland, Ohio) through a 3 way stopcock to allow bladder filling and pressure measurement, respectively. The abdominal incision was covered with plastic wrap. A small incision was made in the perineum to allow placement of EMG electrodes into the periurethral musculature. EMG electrodes were also placed into the muscular tissue of the anus. EMG electrodes were connected to preamplifiers (Grass P511, Quincey, Mass.) with low and high pass filters set at 10 and 3000 HZ. […] A catheter inserted into the carotid artery was connected to a pressure transducer (Statham Gould, Cleveland, Ohio) to record arterial pressure, which was used to trigger a heart rate meter (Biotach, Gould, Cleveland, Ohio). A catheter was inserted into the trachea to allow for artificial respiration and monitoring of expired CO2 (Sensor Medics. Anaheim, Calif.).
After establishing control levels of anal and urethral activity, compounds were administered intravenously. Oxotremorine sesquifumarate (Sigma Chemicals, St. Louis, Mo.), atropine sulfate (RBI, Natick, Mo.), (-) scopolamine methyl bromide (RBI), physostigmine free base (Sigma Chemicals), neostigmine bromide (Sigma) and the test compounds were all dissolved in physiological saline.

[1] = 0.5% acetic acid infused into the bladder or urethra

With `CC(=O)O` [acetic acid] the anal sphincter activity [1] was “pronounced increases in anal sphincter activity”, the “bladder contractile activity and urethral sphincter activity” value [1] was “modest increases in bladder contractile activity and urethral sphincter activity” and the “duration of acetic acid-induced increase in vesico-anal reflex activity” value (in 95% of the animals) was “over 2 hours”.

In the case of `CN1C2CCC1CC(OC(=O)C(CO)c1ccccc1)C2` (stereo not drawn) [atropine, atropine sulfate], the “duration of the increase in vesico-anal reflex activity when administered alone” value is reported as 15 min, the “vesico-anal reflex activity when administered alone” value is reported as “robust, but transient (15 min.), increases in vesico-anal reflex activity” and the “reversal of the cholinergic agonist-induced inhibition of vesico-anal reflex activity” value (atropine 0.3-1 mg/kg) is reported as “reversed”.

For `C[N+]1(C)[C@@H]2C[C@@H](OC(=O)[C@H](CO)c3ccccc3)C[C@H]1[C@@H]1O[C@@H]12` [Scopolamine methyl bromide, (-) scopolamine methyl bromide], the “blocking of the cholinergic agonist-mediated inhibition of the vesico-anal reflex” value (scopolamine methyl bromide 1-30 ug/kg, peripherally-restricted) was “ineffective”.

`O=C1CCCN1CC#CCN1CCCC1` [Oxotremorine, Oxotremorine sesquifumarate] was tested, and the “inhibition of vesico-anal reflex activity (in words)” value (oxotremorine 1-30 μg/kg iv, test compounds 0.01-1.0 mg/kg iv) was “dose-dependent inhibition of vesico-anal reflex activity” and the “inhibition of vesico-anal reflex activity (to % of control)” value (oxotremorine 1-30 μg/kg iv, urethane-anesthetized rats) was 10 % of control.

`CCN(CC)CC#CCOC(=O)C(O)(c1ccccc1)C1CCCCC1` (stereo not drawn) [oxybutynin] was tested, and the “duration of the increase in vesico-anal reflex activity when administered alone” value was 15 min and the “vesico-anal reflex activity when administered alone” value was “robust, but transient (15 min.), increases in vesico-anal reflex activity”.

In the case of `CNC(=O)Oc1ccc2c(c1)[C@]1(C)CCN(C)[C@@H]1N2C` [physostigmine, physostigmine free base], the “suppression of the VA reflex by cholinesterase inhibitor” value (centrally active (physostigmine) vs peripherally-restricted (neostigmine)) is reported as “suppressed the VA reflex in a dose-dependent, atropine-sensitive manner”.
